Here are results for 17 molecules from patent US8618158B2, “Therapeutic agents” (Cancer Research Technology Limited, priority 2008, dated 2013).

For orientation: IC50 means the concentration that gives 50% inhibition.

Read-outs that look alike come from different tables or passages of the source.

For experiment [1], the target named is MDM2-p53 interaction (Homo sapiens (Human), UniProt Q00987). Briefly: MDM2-p53 ELISA binding assay. As to the method:
Streptavidin-coated 96-well plates are used to immobilise a biotin-tagged IP3 p53-derived peptide ([…]). This is a peptide analogue derived from the p53 binding site for MDM2 ([…]). […] Aliquots of MDM2 generated by in vitro translation are pre-incubated for 20 minutes at room temperature (i.e. 20-25° C.) with test compounds and controls, before transfer into the IP3-coated 96-well plates.
3-(4-Chloro-phenyl)-3-(4-hydroxy-3,5-dimethoxy-benzyloxy)-2-propyl-2,3-dihydro-isoindolin-1-one (NU8231) is currently included as a standard “lead compound” positive control. […] The AP peptide is included as a positive control for biological evaluation of the isoindolinones in the cell free binding assays.
All compounds are dissolved in DMSO and tested at a range of concentrations in the presence of a fixed final concentration of 5% DMSO.

Experiment [2] relates to SJSA-1 cell line. Briefly: Western blot of PARP and caspase-3 cleavage in SJSA-1 cells. The note with it: SJSA-1, after 48 hours of treatment, in comparison to nutlin-3. Type of experiment: cell-based.
Experiment [3] concerns p53-dependent transcriptional activity. Kind of experiment: Luciferase based p53-dependent reporter gene assay. Type of experiment: cell-based.
Experiment [4] has as its system SJSA-1 cell line. Briefly: Western blot of MDM2, p53 and p21 levels in SJSA-1 cells. The note with it: for levels of p53, p21 and MDM2 protein (FIG. 1): MDM2 amplified SJSA-1 cells, 1-20 μM. Type of experiment: cell-based. Here is the method:
The medium was then aspirated and the dishes were washed with 3 mL of cold PBS.
The samples were then loaded onto a precast 4-20% gradient polyacrylamide Tris-Glycine gels (15 wells, 1.5 mm thickness, Invitrogen Life Technologies), along with a pre-stained marker protein (SeeBlue, Invitrogen). The Gels were processed in Novex XCell (Invitrogen) at 180V and blotted onto a High Bond C membrane (Amersham Life Science) overnight at 30V.
The membrane was then blocked for one hour at room temperature in TBS-Tween containing 5% non-fat milk (TBST-M) followed by incubation with primary antibodies for MDM2 (MDM2-Ab 1, 1:500, Oncogene), p53 (p53-D07, 1:1000, Novacastra), p21 (p21 Ab1, 1:100, Oncogene) and Actin (Actin AC40, 1:1000, Sigma) in PBST-M for 1 hour.
The membrane was then washed three times in TBST (15 minutes per wash) and then incubated for an additional 1 hour with a anti mouse or a rabbit horseradish peroxidase (HRP) secondary antibody (Dako, 1:1000) in PBST-M followed by a final wash consisting of six washes with TBST at 5 minutes per wash.
(In general: Immunoblotting shows a protein as a band on a membrane.)

For experiment [5], the system named is wild-type p53 HCT116 cells. Kind of experiment: Growth inhibition in p53 wild-type HCT116 cells. Type of experiment: cell-based.
Experiment [6] relates to p53−/− HCT116 cells. Kind of experiment: Growth inhibition in p53−/− HCT116 cells. Type of experiment: cell-based. The note with it: comparison of p53 wt and p53−/− HCT116.
Where [7] appears, read: Table 5, read-out: MDM2-p53 ELISA IC50.
Setting [8] is: Table 2, mean ± SE of n = 3 unless indicated, read-out: ELISA IC50.
Setting [9] is: Table 1, mean ± SE of n = 3 unless indicated, read-out: ELISA IC50.

Sequence of MDM2-p53 interaction (Q00987 whole entry): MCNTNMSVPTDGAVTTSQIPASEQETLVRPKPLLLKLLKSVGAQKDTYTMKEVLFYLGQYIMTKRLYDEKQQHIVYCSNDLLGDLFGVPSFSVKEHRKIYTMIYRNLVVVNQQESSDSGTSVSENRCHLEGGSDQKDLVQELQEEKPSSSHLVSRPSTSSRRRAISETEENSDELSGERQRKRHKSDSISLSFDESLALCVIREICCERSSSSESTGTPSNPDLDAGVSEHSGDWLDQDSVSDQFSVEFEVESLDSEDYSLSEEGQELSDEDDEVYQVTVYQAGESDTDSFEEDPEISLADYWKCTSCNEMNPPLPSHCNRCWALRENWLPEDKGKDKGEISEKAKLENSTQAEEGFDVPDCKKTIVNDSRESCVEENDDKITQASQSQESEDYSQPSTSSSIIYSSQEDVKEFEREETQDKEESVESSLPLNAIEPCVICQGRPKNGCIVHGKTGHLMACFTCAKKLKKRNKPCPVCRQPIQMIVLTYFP

As for `O=C1c2ccccc2C(O)(c2ccc(F)cc2)N1Cc1ccc([N+](=O)[O-])cc1` (stereo not drawn) [NCL-00016657, 3-(4-fluorophenyl)-3-hydroxy-2-(4-nitrobenzyl)-2,3-dihydroisoindol-1-one], in experiment [1] (setting [7]), the IC50 stood at 9.46 µM.
Consider `O=C1c2ccccc2C(O[C@H]2CC[C@@H](O)C2)(c2ccc(Cl)cc2)N1Cc1ccc([N+](=O)[O-])cc1` (stereo partly drawn) [NU8296, 3-(4-chlorophenyl)-3-((1S,3R)-3-hydroxycyclopentyloxy)-2-(4-nitrobenzyl)isoindolin-1-one], for which, in experiment [2], the “PARP and caspase-3 cleavage (FIG. 4)” value was “comparable to those observed with nutlin-3”. Further, the “p53 dependent transcriptional activity (FIG. 3)” value in experiment [3] was “activation of p53 dependent transcriptional activity”.
Regarding `CC(C)(CO)COC1(c2ccc(Cl)cc2)c2ccccc2C(=O)N1Cc1ccc([N+](=O)[O-])cc1` (stereo not drawn) [NU8353, 3-(4-Chloro-phenyl)-3-(3-hydroxy-2,2-dimethyl-propoxy)-2-(4-nitro-benzyl)-2,3-dihydro-isoindol-1-one], in experiment [1] (setting [8]), the IC50 is 0.395 ± 0.075 µM.
On to `O=C1c2ccccc2C(O[C@H]2C=C[C@@H](O)C2)(c2ccc(Cl)cc2)N1Cc1ccc([N+](=O)[O-])cc1` (stereo in doubt) [NU8297, 3-(4-Chlorophenyl)-3-(4-hydroxycyclopent-2-enyloxy)-2-(4-nitrobenzyl) isoindolin-1-one], for which the “levels of p53, p21 and MDM2 protein (FIG. 1)” value (from here on “levels of p53”) in experiment [4] is “did not show any evidence of activity”. For the same molecule, in experiment [3], the “p53 dependent transcriptional activity (FIG. 3)” value is “activation of p53 dependent transcriptional activity”.
Consider `O=C1c2ccccc2C(OCCCCO)(c2ccc(Cl)cc2)N1CCc1ccc([N+](=O)[O-])cc1` (stereo not drawn) [NU8362, 3-(4-Chlorophenyl)-3-(4-hydroxybutoxy)-2-[2-(4-nitrophenyl)ethyl]-2,3-dihydroisoindol-1-one], for which, in experiment [1] (setting [9]), the IC50 is 3.2 ± 1 µM.
Take `O=C1c2ccccc2C(O)(c2ccc(Cl)cc2)N1Cc1cccc2ccccc12` (stereo not drawn) [NCL-00016046, 3-(4-chlorophenyl)-3-hydroxy-2-naphthalen-1-ylmethyl-2,3-dihydroisoindol-1-one]: the IC50 in experiment [1] (setting [7]) amounted to 96 µM.
`O=C1c2ccccc2C(OCCCO)(c2ccc(Br)cc2)N1Cc1ccc([N+](=O)[O-])cc1` (stereo not drawn) [NU8392, 3-(4-bromophenyl)-3-(3-hydroxypropoxy)-2-(4-nitrobenzyl)isoindolin-1-one]: in experiment [1] (Table 3, read-out: MDM2 IC50), the IC50 is 1.4 ± 0.16 µM.
Turning to `O=C1c2ccccc2C(OC/C=C\CO)(c2ccc(Cl)cc2)N1Cc1ccc([N+](=O)[O-])cc1` (stereo not drawn) [NU8350, 3-(4-Chlorophenyl)-3-(4-hydroxybut-2-enyloxy)-2-(4-nitrobenzyl)-2,3-dihydroisoindol-1-one], the IC50 in experiment [1] (setting [8]) came to 0.402 ± 0.009 µM.
Regarding `COc1ccc(C2=NC(c3ccc(Cl)cc3)C(c3ccc(Cl)cc3)N2C(=O)N2CCNC(=O)C2)c(OC(C)C)c1` (racemic) [Nutlin-3, (±)-4-[4,5-bis-(4-Chlorophenyl)-2-(2-isopropoxy-4-methoxyphenyl)-4,5-dihydroimidazole-1-carbonyl]-piperazin-2-one], in experiment [5], the “growth inhibition (FIGS. 5 and 6)” value is on record as “growth inhibitory”. Also, in experiment [4] (SJSA-1 cells, 1 to 20 μM), the “MDM2, p53 and p21 levels by Western blotting (FIG. 12)” value was “strong dose dependent increase in MDM2, p53 and p21 levels”. Also, the “growth inhibition p53 wt versus p53−/− HCT116 (FIGS. 5 and 6)” value in experiment [6] is on record as “greater growth inhibition in the p53 wt HCT116 cell line than the p53−/− HCT116 cells”.
In the case of `O=C1c2ccccc2C(OCC=CCO)(c2ccc(Cl)cc2)N1Cc1ccc([N+](=O)[O-])cc1` (stereo not drawn) [NU8351, 3-(4-Chlorophenyl)-3-(4-hydroxybut-2-enyloxy)-2-(4-nitrobenzyl)-2,3-dihydroisoindol-1-one], in experiment [1] (setting [8]), the IC50 was found to be 0.405 ± 0.01 µM.
Regarding `O=C1c2ccccc2C(OCCCCO)(c2ccc(Br)cc2)N1Cc1ccc([N+](=O)[O-])cc1` (stereo not drawn) [NU8390, 3-(4-bromophenyl)-3-(4-hydroxybutoxy)-2-(4-nitrobenzyl)isoindolin-1-one], the IC50 in experiment [1] (Table 3, read-out: MDM2 IC50) turned out to be 0.57 ± 0.059 µM.
`O=C1c2ccccc2C(O[C@H]2C=C[C@@H](O)C2)(c2ccc(Cl)cc2)N1Cc1ccccc1` (stereo in doubt) [NU8298, 2-Benzyl-3-(4-chlorophenyl)-3-(4-hydroxycyclopent-2-enyloxy) isoindolin-1-one]: the IC50 in experiment [1] (setting [9]) came to 2.3 ± 0.3 µM.
Consider `Cc1ccc(CN2C(=O)c3ccccc3C2(O[C@H]2C=C[C@@H](O)C2)c2ccc(Cl)cc2)cc1` (stereo in doubt) [NU8295, 3-(4-Chlorophenyl)-3-(4-hydroxycyclopent-2-enyloxy)-2-(4-methylbenzyl) isoindolin-1-one], for which the “levels of p53” value in experiment [4] is “induction of increased levels of p53, p21 and MDM2 protein”. Moreover, the IC50 in experiment [1] (setting [9]) is 1.4 ± 0.4 µM.
As for `O=C1c2ccccc2C(OCC2(CO)CC2)(c2ccc(Cl)cc2)N1Cc1ccc(Cl)cc1` (stereo not drawn) [NU8416, 2-(4-chlorobenzyl)-3-(4-chlorophenyl)-3-((1-(hydroxymethyl)cyclopropyl)methoxy)isoindolin-1-one], the IC50 in experiment [1] (Table 4, read-out: MDM2 IC50) turned out to be 2.31 ± 0.56 µM.
As to `O=C1c2ccccc2C(OC2C=C[C@@H](O)C2)(c2ccc(Cl)cc2)N1Cc1ccc(Cl)cc1` (stereo in doubt) [NU8293, 3-(4-Chlorophenyl)-3-(4-hydroxycyclopent-2-enyloxy)-2-(4-chlorobenzyl) isoindolin-1-one], in experiment [4], the “levels of p53” value was “induction of increased levels of p53, p21 and MDM2 protein”. Besides, the IC50 in experiment [1] (setting [9]) came to 1.5 ± 0.3 µM. Besides, the “p53 dependent transcriptional activity (FIG. 3)” value in experiment [3] is recorded as “activation of p53 dependent transcriptional activity”.
In the case of `O=C1c2ccccc2C(OC[C@H]2CC[C@H](CO)CC2)(c2ccc(Cl)cc2)N1Cc1ccc([N+](=O)[O-])cc1` (stereo partly drawn) [NU8358, 3-(4-Chlorophenyl)-3-(4-hydroxymethylcyclohexylmethoxy)-2-(4-nitrobenzyl)-2,3-dihydroisoindol-1-one], the IC50 in experiment [1] (setting [8]) amounted to 0.582 ± 0.075 µM.
With `O=C1c2ccccc2C(OCC2(CO)CC2)(c2ccc(Cl)cc2)N1Cc1ccc(I)cc1` (stereo not drawn) [NCL-00014529, 3-(4-chlorophenyl)-3-(1-hydroxymethylcyclopropylmethoxy)-2-(4-iodobenzyl)-2,3-dihydroisoindol-1-one], the IC50 in experiment [1] (setting [7]) amounted to 1.5 µM.
